# Laboratory results published in patent publication US20260092054A1, “FUSED RING COMPOUND AND PHARMACEUTICAL CONTAINING SAME” (KAKEN PHARMACEUTICAL CO., LTD., priority 2022, published 2026).
# Target: T1, human STAT6/pIL-4Rα (Homo sapiens, UniProt P42226)
# T1 construct: histidine tag
# T1 sequence (P42226 123-658): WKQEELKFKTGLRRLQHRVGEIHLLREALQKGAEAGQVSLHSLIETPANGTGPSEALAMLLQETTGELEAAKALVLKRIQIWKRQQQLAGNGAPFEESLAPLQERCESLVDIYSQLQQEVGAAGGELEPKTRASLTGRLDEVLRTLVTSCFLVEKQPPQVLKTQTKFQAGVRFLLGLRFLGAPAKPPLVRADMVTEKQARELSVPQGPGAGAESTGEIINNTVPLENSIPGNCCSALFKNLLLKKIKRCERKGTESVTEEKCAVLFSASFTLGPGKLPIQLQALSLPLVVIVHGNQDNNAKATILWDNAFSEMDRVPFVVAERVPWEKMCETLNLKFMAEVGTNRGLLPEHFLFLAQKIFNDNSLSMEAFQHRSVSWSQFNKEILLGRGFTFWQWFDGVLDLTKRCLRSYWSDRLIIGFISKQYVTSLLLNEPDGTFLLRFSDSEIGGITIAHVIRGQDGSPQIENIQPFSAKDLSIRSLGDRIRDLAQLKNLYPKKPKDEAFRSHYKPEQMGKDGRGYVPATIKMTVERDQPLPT
# Test: Binding inhibitory activity between human STAT6/pIL-4Rα by fluorescence polarization method
# Conditions: rhSTAT6 (123-658) / FAM-pIL-4Rα peptide
# Description: Test Example 1: Measurement of Binding Inhibitory Activity Between Human STAT6/pIL-p 4Rα by Fluorescence Polarization Method
# 1) Construction of Histidine Tag-Fused Recombinant Human STAT6 (123 to 658 Region)
# A histidine tag-fused recombinant human STAT6 (hereinafter referred to as rhSTAT6) expression vector [plasmid DNA in which a nucleic acid sequence containing human STAT6 (123-658 region) was inserted into a pET28a(+) vector (Novagen)] was inserted into E. coli, and the cells were cultured overnight under culturing conditions at 17° C. with IPTG treatment. After disrupting E. coli with a high-pressure homogenizer (EmulsiFlex-C3, manufactured by AVESTIN, Inc.), affinity purification using Ni-NTA agarose (manufactured by Qiagen), cation exchange chromatography using HiTrap® CM-FF (manufactured by GE healthcare), and gel filtration chromatography using Superdex® 200 10/300GL (manufactured by GE healthcare) were performed to obtain rhSTAT6.
# 2) Measurement of Binding Inhibitory Activity Between Human STAT6/pIL-4Rα by Fluorescence Polarization Method
# A DMSO solution of the example compound was diluted with an assay buffer [for example, a buffer containing 50 mmol/L NaCl, 10 mmol/L HEPES (pH 7.0), 1 mmol/L DTT, 1 mmol/L EDTA, and 0.01 vol % NP-40, and the like] to prepare a compound-added solution. The DMSO concentration in the compound addition solution was adjusted to 1 or 2 vol %. 10 μL of the compound addition solution and an assay buffer containing 1 or 2 vol % DMSO were added to each well of a 384-well plate. 5 μL of an assay buffer solution containing rhSTAT6 (rhSTAT6 concentration: for example, 1 μmol/L) or an assay buffer was added to each well of a 384-well plate. After leaving the plate at room temperature for 30 minutes in the dark, 5 μL of an assay buffer solution (FAM-pIL-4Rp concentration: for example, 80 nmol/L) containing FAM-labeled phosphorylated IL-4Rα peptide (sequence: FAM-Ala-pTyr-Lys-Pro-Phe-Gln-Asp-Leu-IIe-NH2) (hereinafter, FAM-pIL-4Rp) or an assay buffer containing 2 vol % DMSO was added to each well of the 384-well plate. The mixture was left to stand at room temperature for 30 minutes in the dark, and then centrifuged (200 g, 1 minute, room temperature). Fluorescence polarization values were measured using Infinite (registered trademark) F500 (manufactured by Tecan Japan Co., Ltd.) (Excitation: 485 nm, Emission: 535 nm). The inhibition rate of each Example compound was calculated according to the following formula using the fluorescence polarization value (A) when rhSTAT6 and FAM-pIL-4Rp were added without adding the Example compound, the fluorescence polarization value (B) when FAM-pIL-4Rp was added without adding the Example compound and rhSTAT6, and the fluorescence polarization value (C) when each Example compound, rhSTAT6, and FAM-pIL-4Rp were added.
# In the evaluation of each example compound, the 50% inhibitory concentration (IC50) of each example compound was calculated from a linear function equation of a straight line connecting two points sandwiching 50%.
smiles,measurement,value
CCCc1cc(C(=O)Nc2cccc(C(N)=O)c2)c2c(c1)nc(-c1ccc(N(C)C(C)=O)cc1)n2CCOC [Ex. 204],IC50,2.35 µM
COCCn1c(-c2ccc(N(C)C(C)=O)cc2)nc2cc(CCC(C)(C)OC)cc(C(=O)Nc3cccc(C(N)=O)c3)c21 [Ex. 205],IC50,8.44 µM
C#Cc1cc(C(=O)Nc2cccc(C(N)=O)c2)c2c(c1)nc(-c1ccc(N(C)C(C)=O)cc1)n2CCOC [Ex. 206],IC50,3.62 µM
C=Cc1cc(C(=O)Nc2cccc(C(N)=O)c2)c2c(c1)nc(-c1ccc(N(C)C(C)=O)cc1)n2CCOC [Ex. 207],IC50,2.95 µM
COCCn1c(-c2ccc(N(C)C(C)=O)cc2)nc2cc(C3CC3)cc(C(=O)Nc3cccc(C(N)=O)c3)c21 [Ex. 208],IC50,2.08 µM
COCCn1c(-c2ccc(N(C)C(C)=O)cc2)nc2cc(-c3ccccc3)cc(C(=O)Nc3cccc(C(N)=O)c3)c21 [Ex. 209],IC50,6.6 µM
COCCn1c(-c2ccc(N(C)C(C)=O)cc2)nc2cc(C(C)C)cc(C(=O)Nc3cccc(C(N)=O)c3)c21 [Ex. 210],IC50,2.74 µM
COCCn1c(-c2ccc(N(C)C(C)=O)cc2)nc2cc(CC(C)C)cc(C(=O)Nc3cccc(C(N)=O)c3)c21 [Ex. 211],IC50,4.98 µM
COCCn1c(-c2ccc(N(C)C(C)=O)cc2)nc2cc(C3CCCC3)cc(C(=O)Nc3cccc(C(N)=O)c3)c21 [Ex. 212],IC50,9.03 µM
COCCn1c(-c2ccc(N(C)C(C)=O)cc2)nc2cc(CO)cc(C(=O)Nc3cccc(C(N)=O)c3)c21 [Ex. 213],IC50,3.47 µM
COCCn1c(-c2ccc(N(C)C(C)=O)cc2)nc2cc(CC#N)cc(C(=O)Nc3cccc(C(N)=O)c3)c21 [Ex. 214],IC50,3.98 µM
COCCn1c(-c2ccc(N(C)C(C)=O)cc2)nc2cc(COC)cc(C(=O)Nc3cccc(C(N)=O)c3)c21 [Ex. 215],IC50,2.94 µM
COCCn1c(-c2ccc(-n3c(C)nn(C)c3=O)cc2)cc2cc(C(F)(F)F)cc(C(=O)Nc3cccc(NS(C)(=O)=O)n3)c21 [Ex. 217],IC50,0.59 µM
"C/C(=C\C(=O)N[C@H](C(=O)N1CCC[C@H]1C(=O)N(C)c1ccccc1)C(C)(C)C)c1ccc(OP(=O)(O)O)cc1 [PM-301H, reference compound]",IC50,0.27 µM
